Columns and labels:
[1] = test system: HCT116 cells; assay: Measurement of cell growth inhibition (Cell Counting Kit-8, four days); assay type: cell-based; conditions: Homo sapiens, HCT-116, 96 h; HCT116 colon cancer cell line, four days culture; read-out: Cell growth inhibitory activity (IC50, μM) HCT116
Protocol: Cell growth inhibitory activities of the compounds of the present invention represented by formula (1) were measured by the following method.
Cells were maintained under conditions recommended by the provider of each cell line. Cells suspended in a medium were added to solutions containing various concentrations of the test substance, and the cells were cultured at 37° C. in a 5% CO2 incubator. Four days later, Cell Counting Kit-8 was added, and absorbance measurements were taken following the protocol included in the kit.

[2] = target: T1, Human HSP90 alpha (Homo sapiens, UniProt P07900); assay: Measurement of HSP90 enzyme inhibitory activity (ATPase, malachite green); assay type: biochemical; conditions: purified human HSP90 alpha, 1 mM ATP added, 37° C., two hours; read-out: Enzyme inhibitory activity (IC50, μM) Human HSP 90α
T1 construct: made in house; host or cells: E. coli BL21 codon plus (Stratagene)
Protocol: HSP90 enzyme inhibitory activity of the compounds of the present invention represented by formula (1) was measured by the following method. Among the 6-phenyl-N-phenyl-(1,3,5)triazin/(1,3)pyrimidin-2,4-diamine derivatives which are known LPAAT-β inhibitors, the following two compounds were used as comparative compounds, and their HSP90 enzyme inhibitory activities were measured similarly by the following method.
Introduction of pETHuHSP90a into E. coli (BL21 codon plus; Stratagene) was followed by O/N incubation in the presence of 0.1 mM IPTG, and the collected E. coli cells were disrupted by ultrasonication in a Lysis buffer (50 mM Tris-HCl (pH8.0), 10 mM MgCl2, 0.1% Triton X-100, Protease inhibitor cocktail tablets (Roche Diagnostics)). The cell lysate solution was centrifuged (10,000 rpm×30 minutes), and the supernatant obtained after centrifugation was used as a crude extract. The crude extract was fractionated using HisPrep FF column and HiTrap Q column (Amersham) to prepare a purified enzyme solution.
An enzyme solution for assays was prepared by dilution of the purified enzyme solution using an assay buffer (50 mM Tris HCl pH7.6, 20 mM KCl, 5 mM MgCl2).
10 μL each of various concentrations of the test substances (10% DMSO solution) was added to each well, and for the positive control wells, 10 μL of 10% DMSO was added. 10 μL of 10% DMSO was also added to the negative control well.
10 μL of 1 mM ATP was added to all of the wells, and the reaction was carried out at 37° C. for two hours.

SMILES: COc1ccc(OC)c(Sc2cc(-c3ccc(Cl)cc3Cl)nc(N)n2)c1 [Example 39, 4-(2,4-dichlorophenyl)-6-(2,5-dimethoxyphenylsulfanyl)-pyrimidin-2-ylamine]
- IC50 [1]: 8.5 µM
- IC50 [2]: 1.8 µM

SMILES: Nc1nc(SCCC(=O)NCCO)cc(-c2c(Cl)cc3c4c(cccc24)COC3)n1 [Example 317, 3-[2-amino-6-(5-chloro-1H,3H-benzo[de]isochromen-6-yl)-pyrimidin-4-ylsulfanyl]-N-(2-hydroxy-ethyl)-propionamide]
- IC50 [1]: 0.41 µM
- IC50 [2]: 1.3 µM

SMILES: Nc1nc(SC2CCCCC2)nc(-c2c(Cl)cc3c4c(cccc24)COC3)n1 [Example 92, 4-(5-chloro-1H,3H-benzo[de]isochromen-6-yl)-6-cyclohexylsulfanyl-[1,3,5]triazin-2-ylamine]
- IC50 [1]: 9.2 µM
- IC50 [2]: 1.1 µM

SMILES: NC(=O)CCCSc1nc(N)nc(-c2c(Cl)cc3c4c(cccc24)CSC3)n1 [Example 343, 4-[4-amino-6-(5-chloro-1H,3H-2-thia-phenalen-6-yl)-[1,3,5]triazin-2-ylsulfanyl]-butyramide]
- IC50 [1]: 0.015 µM
- IC50 [2]: 1.8 µM

SMILES: COC(=O)c1cc(-c2nc(N)nc(SCC(O)CO)n2)c(C)cc1C (centres unmarked) [Example 37, 5-[4-amino-6-(2,3-dihydroxypropylsulfanyl)-[1,3,5]triazin-2-yl]-2,4-dimethylbenzoic acid methyl ester]
- IC50 [1]: 6.6 µM
- IC50 [2]: 1.4 µM

SMILES: CC(=O)NCCSc1nc(N)nc(-c2cc(OCC#N)c(Cl)cc2Cl)n1 [Example 59, N-{2-[4-amino-6-(2,4-dichloro-5-cyanomethoxy-phenyl)-[1,3,5]triazin-2-ylsulfanyl]-ethyl}-acetamide]
- IC50 [1]: 0.12 µM
- IC50 [2]: 1 µM

SMILES: NC(=O)CCSc1cc(-c2c(Cl)cc3c4c(cccc24)COC3)nc(N)n1 [Example 316, 3-[2-amino-6-(5-chloro-1H,3H-benzo[de]isochromen-6-yl)-pyrimidin-4-ylsulfanyl]-propionamide]
- IC50 [1]: 0.45 µM
- IC50 [2]: 2.1 µM

SMILES: COc1ccc(OC)c(Sc2cc(-c3ccc(OCC#N)cc3C)nc(N)n2)c1 [Example 45, {4-[2-amino-6-(2,5-dimethoxyphenylsulfanyl)-pyrimidin-4-yl]-3-methylphenoxy}-acetonitrile]
- IC50 [1]: 4.1 µM
- IC50 [2]: 1.4 µM

SMILES: CS(=O)(=O)NCCSc1cc(-c2c(Cl)cc3c4c(cccc24)COC3)nc(N)n1 [Example 329, N-{2-[2-amino-6-(5-chloro-1H,3H-benzo[de]isochromen-6-yl)-pyrimidin-4-ylsulfanyl]-ethyl}-methanesulfonamide]
- IC50 [1]: 0.31 µM
- IC50 [2]: 1 µM

SMILES: COc1ccc(OC)c(Sc2cc(-c3cc(OCc4ccccc4)c(Cl)cc3Cl)nc(N)n2)c1 [Example 48, 4-(5-benzyloxy-2,4-dichlorophenyl)-6-(2,5-dimethoxyphenylsulfanyl)-pyrimidin-2-ylamine]
- IC50 [1]: 42.9 µM
- IC50 [2]: 2.5 µM

SMILES: Nc1nc(SCCCO)cc(-c2c(Cl)cc3c4c(cccc24)COC3)n1 [Example 326, 3-[2-amino-6-(5-chloro-1H,3H-benzo[de]isochromen-6-yl)-pyrimidin-4-ylsulfanyl]-propan-1-ol]
- IC50 [1]: 0.52 µM
- IC50 [2]: 2.1 µM

SMILES: COc1ccc(Oc2nc(N)nc(-c3c(Cl)cc4c5c(cccc35)COC4)n2)cc1OC [Example 82, 4-(5-chloro-1H,3H-benzo[de]isochromen-6-yl)-6-(3,4-dimethoxyphenoxy)-[1,3,5]triazin-2-ylamine]
- IC50 [1]: 6.1 µM
- IC50 [2]: 1.4 µM

SMILES: COc1ccc(OC)c(Sc2nc(N)nc(-c3c(Cl)cc4c5c(cccc35)COC4)n2)c1 [Example 145, 4-(5-Chloro-1H,3H-benzo[de]isochromen-6-yl)-6-(2,5-dimethoxyphenylsulfanyl)-[1,3,5]triazin-2-ylamine]
- IC50 [1]: 0.24 µM
- IC50 [2]: 1.9 µM

SMILES: COc1ccc(OC)c(Sc2cc(-c3cc(OCC#N)c(Cl)cc3Cl)nc(N)n2)c1 [Example 52, {5-[2-amino-6-(2,5-dimethoxyphenylsulfanyl)-pyrimidin-4-yl]-2,4-dichlorophenyoxy}-acetonitrile]
- IC50 [1]: 1.4 µM
- IC50 [2]: 1.7 µM

SMILES: CC(CSc1cc(-c2c(Cl)cc3c4c(cccc24)COC3)nc(N)n1)C(N)=O (centres unmarked) [Example 321, 3-[2-amino-6-(5-chloro-1H,3H-benzo[de]isochromen-6-yl)-pyrimidin-4-ylsulfanyl]-2-methyl-propionamide]
- IC50 [1]: 0.13 µM
- IC50 [2]: 1.3 µM

SMILES: CC(=O)NCCSc1nc(N)nc(-c2cc(-c3ncccn3)c(Cl)cc2Cl)n1 [Example 25, N-{2-[4-amino-6-(2,4-dichloro-5-pyrimidin-2-yl-phenyl)-[1,3,5]triazin-2-ylsulfanyl]-ethyl}-acetamide]
- IC50 [1]: 0.66 µM
- IC50 [2]: 2.6 µM

SMILES: CC(CSc1nc(N)nc(-c2c(Cl)cc3c4c(cccc24)COC3)n1)C(=O)NCCO (centres unmarked) [Example 338, 3-[4-amino-6-(5-chloro-1H,3H-benzo[de]isochromen-6-yl)-[1,3,5]triazin-2-ylsulfanyl]-N-(2-hydroxy-ethyl)-2-methyl-propionamide]
- IC50 [1]: 0.12 µM
- IC50 [2]: 1.5 µM

SMILES: N#CCOc1cc(-c2nc(N)nc(SCCC(=O)N3CCOCC3)n2)c(Cl)cc1Cl [Example 63, {5-[4-amino-6-(3-morpholin-4-yl-3-oxo-propylsulfanyl)-[1,3,5]triazin-2-yl]-2,4-dichlorophenoxy}-acetonitrile]
- IC50 [1]: 0.74 µM
- IC50 [2]: 2 µM

SMILES: Nc1nc(SCCC(=O)NC[C@@H](O)CO)nc(-c2c(Cl)cc3c4c(cccc24)COC3)n1 [Example 335, 3-[4-amino-6-(5-chloro-1H,3H-benzo[de]isochromen-6-yl)-[1,3,5]triazin-2-ylsulfanyl]-N—((R)-2,3-dihydroxy-propyl)-propionamide]
- IC50 [1]: 0.49 µM
- IC50 [2]: 1.2 µM

SMILES: NC(=O)CSc1cc(-c2c(Cl)cc3c4c(cccc24)COC3)nc(N)n1 [Example 314, 2-[2-amino-6-(5-chloro-1H,3H-benzo[de]isochromen-6-yl)-pyrimidin-4-ylsulfanyl]-acetamide]
- IC50 [1]: 1.1 µM
- IC50 [2]: 1.3 µM

SMILES: COCCNC(=O)CCSc1nc(N)nc(-c2c(Cl)cc3c4c(cccc24)COC3)n1 [Example 334, 3-[4-amino-6-(5-chloro-1H,3H-benzo[de]isochromen-6-yl)-[1,3,5]triazin-2-ylsulfanyl]-N-(2-methoxy-ethyl)-propionamide]
- IC50 [1]: 0.16 µM
- IC50 [2]: 1.3 µM

SMILES: CC(=O)NCCSc1cc(-c2c(Cl)cc3c4c(cccc24)COC3)nc(N)n1 [Example 327, N-{2-[2-amino-6-(5-chloro-1H,3H-benzo[de]isochromen-6-yl)-pyrimidin-4-ylsulfanyl]-ethyl}-acetamide]
- IC50 [1]: 0.93 µM
- IC50 [2]: 2.1 µM
